In PubChem BioAssay (NCI):
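Exposure lasted 48 hours, with cells grown in 96-well plates and compounds tested at five concentrations. Definition used: TGI = concentration required for complete inhibition of growth.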

Columns and labels:
Assay in all cases: NCI anticancer screen, dose series, 48 h
786-0 renal = system: 786-0 renal
A498 renal = system: A498 renal
A549 NSCLC = system: A549 NSCLC
ACHN renal = system: ACHN renal
CAKI-1 renal = system: CAKI-1 renal
CCRF-CEM leukemia = system: CCRF-CEM leukemia
COLO 205 colon = system: COLO 205 colon
DU-145 prostate = system: DU-145 prostate
HCT-116 colon = system: HCT-116 colon
HCT-15 colon = system: HCT-15 colon
HL-60(TB) leukemia = system: HL-60(TB) leukemia
HOP-62 NSCLC = system: HOP-62 NSCLC
HS 578T breast = system: HS 578T breast
HT29 colon = system: HT29 colon
IGROV1 ovarian = system: IGROV1 ovarian
K-562 leukemia = system: K-562 leukemia
KM12 colon = system: KM12 colon
LOX IMVI melanoma = system: LOX IMVI melanoma
M14 melanoma = system: M14 melanoma
MALME-3M melanoma = system: MALME-3M melanoma
MDA-MB-231 breast = system: MDA-MB-231 breast
MDA-MB-435 = system: MDA-MB-435
MDA-N = system: MDA-N
MOLT-4 leukemia = system: MOLT-4 leukemia
NCI-H226 lung = system: NCI-H226 lung
NCI-H23 lung = system: NCI-H23 lung
NCI-H460 lung = system: NCI-H460 lung
NCI-H522 lung = system: NCI-H522 lung
NCI/ADR-RES ovarian = system: NCI/ADR-RES ovarian
OVCAR-3 ovarian = system: OVCAR-3 ovarian
OVCAR-4 ovarian = system: OVCAR-4 ovarian
OVCAR-5 ovarian = system: OVCAR-5 ovarian
OVCAR-8 ovarian = system: OVCAR-8 ovarian
PC-3 prostate = system: PC-3 prostate
RPMI-8226 leukemia = system: RPMI-8226 leukemia
RXF 393 renal = system: RXF 393 renal
SF-268 CNS = system: SF-268 CNS
SF-295 CNS = system: SF-295 CNS
SF-539 CNS = system: SF-539 CNS
SK-MEL-2 melanoma = system: SK-MEL-2 melanoma
SK-MEL-28 melanoma = system: SK-MEL-28 melanoma
SK-MEL-5 melanoma = system: SK-MEL-5 melanoma
SK-OV-3 ovarian = system: SK-OV-3 ovarian
SN12C renal = system: SN12C renal
SNB-19 CNS = system: SNB-19 CNS
SNB-75 CNS = system: SNB-75 CNS
SR leukemia = system: SR leukemia
SW-620 colon = system: SW-620 colon
T-47D breast = system: T-47D breast
TK-10 renal = system: TK-10 renal
U251 CNS = system: U251 CNS
UACC-257 melanoma = system: UACC-257 melanoma
UACC-62 melanoma = system: UACC-62 melanoma
UO-31 renal = system: UO-31 renal
BT-549 breast = system: BT-549 breast
EKVX NSCLC = system: EKVX NSCLC
HCC-2998 colon = system: HCC-2998 colon
HOP-92 NSCLC = system: HOP-92 NSCLC
MCF7 breast = system: MCF7 breast

Measured: TGI

COc1cc(OC)c2c(c1OC)OCC(Cc1ccc(O)cc1)C2=O (stereo not drawn)
not listed: BT-549 breast | EKVX NSCLC | HCC-2998 colon | HOP-92 NSCLC | MCF7 breast
> 25 µM: all other assays above

COC(=O)CC1(CNC(=O)OCc2ccccc2)OCCO1
not listed: HOP-62 NSCLC | HS 578T breast | HT29 colon | SF-268 CNS | T-47D breast
> 100 µM: all other assays above
